Source: patent publication US11191269B2, “Use of an acyclic picolinamide compound as a fungicide for fungal diseases on turfgrasses” (Dow AgroSciences LLC, priority 2017, dated 2021)

Legend:
[1] = system: Sclerotinia homoeocarpa (SCLEHO); assay: Field assessment of Sclerotinia homoeocarpa (SCLEHO), dollar spot, on creeping bentgrass; format: in vivo
[2] = system: Glomerella graminicola (COLLGR); assay: Field assessment of Glomerella graminicola (COLLGR), anthracnose, on annual bluegrass; format: in vivo

## COc1ccnc(C(=O)N[C@@H](C)C(=O)O[C@@H](C)C(c2ccc(F)cc2)c2ccc(F)cc2)c1OC(C)=O [Compound I, (S)-1,1-bis(4-fluorophenyl)propan-2-yl (3-acetoxy-4-methoxypicolinoyl)-L-alaninate]
[1]; 250 g ai/ha, 0 DAAA, percentage of plot infested
  Dollar Spot Infestation (% Visual): 2.2%
[1]; 250 g ai/ha, 6 DAAC
  Dollar Spot Infestation (% Visual): 0.6%
[1]; 250 g ai/ha, 8 DAAA
  Dollar Spot Infestation (% Visual): 0.8%
[1]; 250 g ai/ha, 8 DAAB
  Dollar Spot Infestation (% Visual): 0.8%
[1]; 250 g ai/ha, 13 DAAB
  Dollar Spot Infestation (% Visual): 1.1%
[1]; 250 g ai/ha, 13 DAAC
  Dollar Spot Infestation (% Visual): 2.1%
[1]; 250 g ai/ha, 14 DAAA
  Dollar Spot Infestation (% Visual): 0.7%
[1]; 500 g ai/ha, 0 DAAA
  Dollar Spot Infestation (% Visual): 1.7%
[1]; 500 g ai/ha, 6 DAAC
  Dollar Spot Infestation (% Visual): 0.3%
[1]; 500 g ai/ha, 8 DAAA
  Dollar Spot Infestation (% Visual): 0.5%
[1]; 500 g ai/ha, 8 DAAB
  Dollar Spot Infestation (% Visual): 0.5%
[1]; 500 g ai/ha, 13 DAAB
  Dollar Spot Infestation (% Visual): 0.6%
[1]; 500 g ai/ha, 13 DAAC
  Dollar Spot Infestation (% Visual): 0.5%
[1]; 500 g ai/ha, 14 DAAA
  Dollar Spot Infestation (% Visual): 0.5%
[1]; Compound I applied at 500 g ai/ha
  Dollar spot control compared with commercial standards (in words): provided better control than Eagle 20EW and was equivalent to Xzemplar Fungicide
[1]; formulations of Compound I, observation period
  Dollar spot disease control (in words): significantly reduce dollar spot disease
[2]; 250 and 500 g ai/ha treatments, Poa annua
  Anthracnose control compared with commercial standard (in words): equivalent to the control provided by Velista
[2]; 250 g ai/ha, 0 DAAA, Poa annua, percentage of plot infested
  Anthracnose Infestation (% Visual): 22.1%
[2]; 250 g ai/ha, 8 DAAA, Poa annua
  Anthracnose Infestation (% Visual): 7%
[2]; 250 g ai/ha, 10 DAAB, Poa annua
  Anthracnose Infestation (% Visual): 22.1%
[2]; 250 g ai/ha, 11 DAAC, Poa annua
  Anthracnose Infestation (% Visual): 11.5%
[2]; 250 g ai/ha, 14 DAAA, Poa annua
  Anthracnose Infestation (% Visual): 7%
[2]; 250 g ai/ha, 17 DAAB, Poa annua
  Anthracnose Infestation (% Visual): 11.5%
[2]; 250 g ai/ha, 17 DAAC, Poa annua
  Anthracnose Infestation (% Visual): 22.1%
[2]; 500 g ai/ha, 0 DAAA, Poa annua
  Anthracnose Infestation (% Visual): 43.2%
[2]; 500 g ai/ha, 8 DAAA, Poa annua
  Anthracnose Infestation (% Visual): 9.2%
[2]; 500 g ai/ha, 10 DAAB, Poa annua
  Anthracnose Infestation (% Visual): 9.2%
[2]; 500 g ai/ha, 11 DAAC, Poa annua
  Anthracnose Infestation (% Visual): 11.5%
[2]; 500 g ai/ha, 14 DAAA, Poa annua
  Anthracnose Infestation (% Visual): 7%
[2]; 500 g ai/ha, 17 DAAB, Poa annua
  Anthracnose Infestation (% Visual): 11.5%
[2]; 500 g ai/ha, 17 DAAC, Poa annua
  Anthracnose Infestation (% Visual): 11.5%
[2]; formulations of Compound I, Poa annua putting greens
  Anthracnose disease control (in words): provided significant control of anthracnose disease
